Values after ≈ are worked out from the molar mass of the structure shown.
Tests used:
[1] = test system: B. thailandensis ATCC 700388; assay: microbe, parasite or virus in culture; type: cell-based; details: Burkholderia thailandensis, ATCC700388, read-out: Minimum inhibitory concentration (MIC), B. thailandensis ATCC 700388
A. baumannii ATCC 17978 = assay: microbe, parasite or virus in culture; type: cell-based; details: Acinetobacter baumannii, ATCC17978, read-out: MIC, A. baumannii ATCC 17978
[2] = test system: B. humptydooensis ATCC BAA-2767; assay: microbe, parasite or virus in culture; type: cell-based; details: Burkholderia humptydooensis, ATCCBAA2767, read-out: Minimum inhibitory concentration (MIC), B. humptydooensis ATCC BAA-2767
A. baumannii 1258916 = assay: microbe, parasite or virus in culture; type: cell-based, Acinetobacter baumannii; details: Acinetobacter baumannii, 1258916, read-out: MIC, A. baumannii 1258916
P. aeruginosa CDC-0095 = assay: microbe, parasite or virus in culture; type: cell-based; details: Pseudomonas aeruginosa, CDC0095, read-out: Minimum inhibitory concentration, P. aeruginosa CDC-0095
[3] = molecular target: T1, PBP3 from Pseudomonas aeruginosa (PAO1) (Pseudomonas aeruginosa, UniProt G3XD46); assay: Bocillin-FL fluorescence polarization competition binding, P. aeruginosa PBP3; details: Binding affinity to P. aeruginosa PBP3; fluorescence polarization competition binding assay using Bocillin-FL; read-out: P. aeruginosa PBP3 Potency
T1 construct: made in house
In short: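 Purified PBP was preincubated with inhibitor (E. coli PBP3 1.5 μM, 30 min; P. aeruginosa PBP3 0.75 μM, A. baumannii PBP3 0.2 μM and PBP1a 1 μM, 15 min), then Bocillin-FL (0.1 μM; 0.05 μM for PBP1a) added and FP read up to 60 min. EC50 = 50% loss of bound probe.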

P. aeruginosa ATCC 35151 = assay: microbe, parasite or virus in culture; type: cell-based; details: Pseudomonas aeruginosa, ATCC35151, read-out: Minimum inhibitory concentration, P. aeruginosa ATCC 35151
A. baumannii PBP2 = A. baumannii PBP2 (Acinetobacter baumannii, UniProt D0C8Z9); assay: Bocillin-FL competition binding via gel filtration, A. baumannii PBP2
In short: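 Competitive equilibrium binding; reporter Bocillin-FL. PBP + inhibitor (titration) pre-incubated → Bocillin-FL, 15 min → gel filtration → fluorescence. EC50 from Hill fit of fraction bound vs [inhibitor].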

A. baumannii ATCC 19606 = assay: microbe, parasite or virus in culture; type: cell-based; details: Acinetobacter baumannii, ATCC19606, read-out: MIC, A. baumannii ATCC 19606
A. baumannii CDC-0083 = assay: microbe, parasite or virus in culture; type: cell-based; details: Acinetobacter baumannii, CDC0083, read-out: MIC, A. baumannii CDC-0083
A. baumannii CDC-0033 = assay: microbe, parasite or virus in culture; type: cell-based; details: Acinetobacter baumannii, CDC0033, read-out: MIC, A. baumannii CDC-0033
A. baumannii CDC-0045 = assay: microbe, parasite or virus in culture; type: cell-based; details: Acinetobacter baumannii, CDC0045, read-out: MIC, A. baumannii CDC-0045
A. baumannii CDC-0036 = assay: microbe, parasite or virus in culture; type: cell-based; details: Acinetobacter baumannii, CDC0036, read-out: MIC, A. baumannii CDC-0036

Chain of A. baumannii PBP2 (D0C8Z9 whole entry): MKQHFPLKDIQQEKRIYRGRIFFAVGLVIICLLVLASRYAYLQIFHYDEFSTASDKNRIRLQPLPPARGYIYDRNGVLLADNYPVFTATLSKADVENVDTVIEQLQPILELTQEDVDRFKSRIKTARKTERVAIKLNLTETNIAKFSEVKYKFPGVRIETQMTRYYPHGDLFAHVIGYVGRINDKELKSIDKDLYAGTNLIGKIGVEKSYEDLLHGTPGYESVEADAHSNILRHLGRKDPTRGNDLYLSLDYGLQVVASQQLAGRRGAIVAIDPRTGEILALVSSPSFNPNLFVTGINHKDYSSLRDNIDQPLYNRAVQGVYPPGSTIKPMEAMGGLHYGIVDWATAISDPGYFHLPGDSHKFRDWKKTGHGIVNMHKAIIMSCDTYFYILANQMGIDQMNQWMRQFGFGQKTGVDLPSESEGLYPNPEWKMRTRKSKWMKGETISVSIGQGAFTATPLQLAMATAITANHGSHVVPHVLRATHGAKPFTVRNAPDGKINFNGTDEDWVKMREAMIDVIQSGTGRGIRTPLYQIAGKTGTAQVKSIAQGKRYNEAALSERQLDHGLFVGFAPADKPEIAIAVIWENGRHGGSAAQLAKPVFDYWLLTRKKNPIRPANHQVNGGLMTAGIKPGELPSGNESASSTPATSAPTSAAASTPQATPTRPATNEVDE
T1 sequence (G3XD46 whole entry): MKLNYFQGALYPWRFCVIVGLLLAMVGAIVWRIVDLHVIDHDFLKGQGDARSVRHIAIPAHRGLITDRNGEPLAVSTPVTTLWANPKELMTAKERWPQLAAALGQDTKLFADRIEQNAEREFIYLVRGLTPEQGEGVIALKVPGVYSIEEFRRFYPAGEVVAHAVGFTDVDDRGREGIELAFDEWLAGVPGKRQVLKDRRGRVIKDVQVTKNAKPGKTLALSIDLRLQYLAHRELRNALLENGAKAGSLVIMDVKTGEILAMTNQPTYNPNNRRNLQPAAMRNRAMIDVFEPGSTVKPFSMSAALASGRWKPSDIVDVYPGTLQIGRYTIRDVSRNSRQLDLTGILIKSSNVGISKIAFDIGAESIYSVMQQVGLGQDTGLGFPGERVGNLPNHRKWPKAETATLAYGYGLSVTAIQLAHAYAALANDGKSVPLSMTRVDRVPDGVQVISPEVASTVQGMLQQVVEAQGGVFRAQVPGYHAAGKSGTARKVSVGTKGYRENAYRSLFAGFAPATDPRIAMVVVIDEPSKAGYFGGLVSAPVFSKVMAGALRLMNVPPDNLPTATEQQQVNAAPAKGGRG

Row | Compound | MIC [1] [µg/mL] | MIC (A. baumannii ATCC 17978) [µg/mL] | MIC [2] [µg/mL] | MIC (A. baumannii 1258916) [µg/mL] | MIC (P. aeruginosa CDC-0095) [µg/mL] | IC50 [3] [µM] | MIC (P. aeruginosa ATCC 35151) [µg/mL] | EC50 (A. baumannii PBP2) [µM] | MIC (A. baumannii ATCC 19606) [µg/mL] | MIC (A. baumannii CDC-0083) [µg/mL] | MIC (A. baumannii CDC-0033) [µg/mL] | MIC (A. baumannii CDC-0045) [µg/mL] | MIC (A. baumannii CDC-0036) [µg/mL]
1 | O=C(NCCCN1CCN(C(=O)NC(C(=O)N[C@H]2Cc3ccc(F)c(C(=O)O)c3OB2O)c2cc(F)c(O)c(O)c2Cl)C(=O)C1=O)c1cc(O)c(F)c(O)c1F (stereo partly drawn) [Example 415, (3R)-3-(2-(2-chloro-5-fluoro-3,4-dihydroxyphenyl)-2-(4-(3-(2,4-difluoro-3,5-dihydroxybenzamido)propyl)-2,3-dioxopiperazine-1-carboxamido)acetamido)-7-fluoro-2-hydroxy-3,4-dihydro-2H-benzo[e][1,2]oxaborinine-8-carboxylic acid] | 8 to 16 (≈ 9.85 to 19.7 µM) | < 1 | 8 to 16 (≈ 9.85 to 19.7 µM) | 2 to 4 (≈ 2.46 to 4.93 µM) | < 1 | < 10 | < 1 | 10 to 50 | < 1 | 2 to 4 (≈ 2.46 to 4.93 µM) | 2 to 4 (≈ 2.46 to 4.93 µM) | 2 to 4 (≈ 2.46 to 4.93 µM) | 2 to 4 (≈ 2.46 to 4.93 µM)
2 | O=C(NCCS(=O)(=O)N1CCN(C(=O)N[C@@H](C(=O)N[C@H]2Cc3ccc(F)c(C(=O)O)c3OB2O)c2cc(F)c(O)c(O)c2Cl)C1=O)Nc1ccncc1 [Example 290, (R)-3-((R)-2-(2-chloro-5-fluoro-3,4-dihydroxyphenyl)-2-(2-oxo-3-((2-(3-(pyridin-4-yl)ureido)ethyl)sulfonyl)imidazolidine-1-carboxamido)acetamido)-7-fluoro-2-hydroxy-3,4-dihydro-2H-benzo[e][1,2]oxaborinine-8-carboxylic acid] | 2 to 4 (≈ 2.56 to 5.12 µM) | < 1 | < 1 | < 1 | 2 to 4 (≈ 2.56 to 5.12 µM) | < 10 | < 1 | < 10 | < 1 | < 1 | 2 to 4 (≈ 2.56 to 5.12 µM) | < 1 | 2 to 4 (≈ 2.56 to 5.12 µM)
3 | O=C(NCCCN1CCN(C(=O)NC(C(=O)N[C@H]2Cc3ccc(F)c(C(=O)O)c3OB2O)c2cc(F)c(O)c(O)c2Cl)C(=O)C1=O)c1ccc(O)c(F)c1F (stereo partly drawn) [Example 306, (3R)-3-(2-(2-chloro-5-fluoro-3,4-dihydroxyphenyl)-2-(4-(3-(2,3-difluoro-4-hydroxybenzamido)propyl)-2,3-dioxopiperazine-1-carboxamido)acetamido)-7-fluoro-2-hydroxy-3,4-dihydro-2H-benzo[e][1,2]oxaborinine-8-carboxylic acid] | 2 to 4 (≈ 2.51 to 5.03 µM) | < 1 | 2 to 4 (≈ 2.51 to 5.03 µM) | < 1 | < 1 | < 10 | < 1 | < 10 | < 1 | 2 to 4 (≈ 2.51 to 5.03 µM) | 2 to 4 (≈ 2.51 to 5.03 µM) | < 1 | 2 to 4 (≈ 2.51 to 5.03 µM)
4 | O=C(NCCCN1CCN(C(=O)N[C@@H](C(=O)N[C@H]2Cc3ccc(F)c(C(=O)O)c3OB2O)c2cc(F)c(O)c(O)c2Cl)C(=O)C1=O)c1ccncc1O [Example 296, (R)-3-((R)-2-(2-chloro-5-fluoro-3,4-dihydroxyphenyl)-2-(4-(3-(3-hydroxyisonicotinamido)propyl)-2,3-dioxopiperazine-1-carboxamido)acetamido)-7-fluoro-2-hydroxy-3,4-dihydro-2H-benzo[e][1,2]oxaborinine-8-carboxylic acid] | 2 to 4 (≈ 2.63 to 5.26 µM) | < 1 | 2 to 4 (≈ 2.63 to 5.26 µM) | < 1 | < 1 | < 10 | < 1 | < 10 | < 1 | < 1 | 2 to 4 (≈ 2.63 to 5.26 µM) | < 1 | < 1

From patent US20240270762A1, “PENICILLIN-BINDING PROTEIN INHIBITORS” (priority 2021, published 2024)
